Source: PubChem BioAssay AID2060483 (Molecular Pharmacology Branch, DTP, NCI, 2025)

Test system: K24384-001-R-PDC complex spheroids, viability
Experiment: Anticancer human tumor K24384-001-R-PDC patient-derived pancreatic adenocarcinoma cell line growth inhibition [GQUAD]
Settings: for IC50: curve of first compound; for viability, T/C: stronger effect = lower value
Text: DNA G-quadruplex Stabilizer Agents in Combinations in Complex Spheroids
A high-throughput screen of multi-cell type tumor spheroids was designed to identify active combinations of DNA G-quadruplex stabilizer agents and targeted small molecules. Complex spheroids include a stromal component modeled by human endothelial cells (HUVEC) and fibroblasts modeled by human mesenchymal stem cells (MSCs). The concentration ranges selected for each drug and investigational agent were based upon clinically achievable concentrations if the clinical Cmax of the agent was known.
Compounds. The drugs and investigational agents: pidnarulex (CX-5461; NSC782164), APTO-253 (NSC789042), BRACO-19 (NSC847499), peposertib (NSC802822), ceralasertib (NSC780249), elimusertib (NSC800525), camonsertib (NSC841442), AZD-1390 (NSC803789), olaparib (NSC753686), talazoparib (NSC767125), ART-558 (NSC835418), sotorasib (NSC818433), MRTX-1133 (NSC836407), SN-38 (NSC673596), topotecan (NSC609699), etoposide (NSC141540), doxorubicin (NSC123127), gemcitabine (NSC613327), 5-fluorouracil (NSC19893), paclitaxel (NSC125973), vemurafenib (NSC761431), panobinostat (NSC761190), R-306465 (JNJ-16241199; NSC773264), adavosertib (NSC754352), TP-3654 (NSC805149), carboplatin (NSC241240), KSQ-4279 (NSC840948), and staurosporine (NSC755774) were obtained from the National Cancer Institute (NCI) Developmental Therapeutics Program Chemical Repository (34). The FDA-approved anticancer drug set is available from the NCI Developmental Therapeutics Program. […] The stock solutions were prepared in dimethyl sulfoxide (DMSO, Sigma-Aldrich, St. Louis, MO, cat. D2650) at 800-fold the tested concentration and stored at -70 degrees C prior to their use. All drugs and investigational agents were tested over a range starting from a high concentration at or near the clinical Cmax and decreasing in half-log increments. If the clinical Cmax for an agent had not been determined, the highest concentration tested was 10 microM.
2.3 Cell Culture. All cells were maintained in an incubator at 37 degrees C and 5% CO2 with 95% humidity. The PDC lines were cultured according to standard operating procedures established by the NCI PDMR. All PDCs were thawed and cultured in Matrigel-coated flasks prepared with a working solution of 1X Ham's F-12 nutrient mix, without supplementation (Invitrogen, cat. 11765054), 100 U/mL penicillin-streptomycin (Invitrogen, cat. 15140122), and 2.5% Matrigel (Corning Inc., cat. 354248) for the first three passages. The 857933-349-R-J2-PDC line was cultured in 6C/Colon 1B media, which includes advanced DMEM/F-12 (Thermo Fisher Scientific, cat. 12634028), 10 mM HEPES (Thermo Fisher Scientific, cat. 15630080), 1X GlutaMAX supplement (Thermo Fisher Scientific, cat. 35050061), 0.1 mg/mL primocin (InvivoGen, cat. ant-pm-2), 10% defined fetal bovine serum, heat inactivated (HyClone Laboratories Inc., cat. SH30070.03HI), 50% L-WRN conditioned media (ATCC, cat. CRL-3276), 1.25 mM N-Acetyl-L-cysteine (Sigma-Aldrich, cat. A9165), 10 mM nicotinamide (Sigma-Aldrich, cat. N0636), 1X B-27 supplement (Thermo Fisher Scientific, cat. 17504044), 1X N-2 supplement (Thermo Fisher Scientific, cat. 17502048), 10 microM Y-27632 dihydrochloride (Tocris Bioscience, cat. 1254), and 50 ng/mL human EGF recombinant protein (Thermo Fisher Scientific, cat. PHG0311). The 485176-168-R4-J1-PDC line was cultured in Panc media, which includes all 6C/Colon 1B media components plus 100 ng/mL human FGF-10 (Thermo Fisher Scientific, cat. 100-26), 500 nM SB-431542 (Selleckchem, cat. S1067), and gastrin (Tocris, cat. 3006).
[…]
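Further: spheroids exposed to compounds for seven days.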

COc1ccc([C@@H](O)c2cc(-c3ncnc4cc(N5CCOCC5)ccc34)c(F)cc2Cl)nn1 + CN(C)c1ccc(Nc2c3ccc(NC(=O)CCN4CCCC4)cc3nc3cc(NC(=O)CCN4CCCC4)ccc23)cc1
IC50 (second compound 0.0316 µM): 2.1 µM | IC50 (second compound 0.1 µM): 2.6 µM | IC50 (second compound 0.316 µM): 1.61 µM | IC50 (second compound 1 µM): 1.93 µM | IC50 (second compound 3.16 µM): 2.54 µM | IC50 (second compound 10 µM): 1.08 µM | viability, T/C (second compound 0.0316 µM, first compound 0.0316 µM): 98.6% | viability, T/C (second compound 0.0316 µM, first compound 0.1 µM): 86.4% | viability, T/C (second compound 0.0316 µM, first compound 0.316 µM): 81.2% | viability, T/C (second compound 0.0316 µM, first compound 1 µM): 58.7% | viability, T/C (second compound 0.0316 µM, first compound 3.16 µM): 44.3% | viability, T/C (second compound 0.0316 µM, first compound 10 µM): 36.5% | viability, T/C (second compound 0.1 µM, first compound 0.0316 µM): 89.5% | viability, T/C (second compound 0.1 µM, first compound 0.1 µM): 96.5% | viability, T/C (second compound 0.1 µM, first compound 0.316 µM): 102% | viability, T/C (second compound 0.1 µM, first compound 1 µM): 76.6% | viability, T/C (second compound 0.1 µM, first compound 3.16 µM): 45.9% | viability, T/C (second compound 0.1 µM, first compound 10 µM): 34.9% | viability, T/C (second compound 0.316 µM, first compound 0.0316 µM): 91.4% | viability, T/C (second compound 0.316 µM, first compound 0.1 µM): 109% | viability, T/C (second compound 0.316 µM, first compound 0.316 µM): 83.8% | viability, T/C (second compound 0.316 µM, first compound 1 µM): 56.8% | viability, T/C (second compound 0.316 µM, first compound 3.16 µM): 42.5% | viability, T/C (second compound 0.316 µM, first compound 10 µM): 25.8% | viability, T/C (second compound 1 µM, first compound 0.0316 µM): 82.1% | viability, T/C (second compound 1 µM, first compound 0.1 µM): 83.1% | viability, T/C (second compound 1 µM, first compound 0.316 µM): 84.8% | viability, T/C (second compound 1 µM, first compound 1 µM): 62.4% | viability, T/C (second compound 1 µM, first compound 3.16 µM): 40.3% | viability, T/C (second compound 1 µM, first compound 10 µM): 23.4% | viability, T/C (second compound 3.16 µM, first compound 0.0316 µM): 91.9% | viability, T/C (second compound 3.16 µM, first compound 0.1 µM): 95.4% | viability, T/C (second compound 3.16 µM, first compound 0.316 µM): 72.2% | viability, T/C (second compound 3.16 µM, first compound 1 µM): 75.5% | viability, T/C (second compound 3.16 µM, first compound 3.16 µM): 42.4% | viability, T/C (second compound 3.16 µM, first compound 10 µM): 22.5% | viability, T/C (second compound 10 µM, first compound 0.0316 µM): 67.3% | viability, T/C (second compound 10 µM, first compound 0.1 µM): 73.6% | viability, T/C (second compound 10 µM, first compound 0.316 µM): 72.3% | viability, T/C (second compound 10 µM, first compound 1 µM): 44.3% | viability, T/C (second compound 10 µM, first compound 3.16 µM): 34.3% | viability, T/C (second compound 10 µM, first compound 10 µM): 12.3%
